According to patent publication US12370162B1 (Rplushealth Limited, priority 2024, dated 2025):

Columns and labels:
[1] = system: A431, MCF-7, HeLa, HepG2, PC3, SKOV3, A549, U251, K562, and Caco-2 tumor cells; experiment: Transwell migration assay with serine/glycine at different levels; type: cell-based; settings: low serine level or low glycine level compared to high serine and glycine levels
[2] = system: A431, MCF-7, HeLa, HepG2, PC3, SKOV3, A549, U251, K562, and Caco-2 tumor cells; experiment: MTT assay, tumor cell growth with serine/glycine at different levels; type: cell-based; settings: low serine level or low glycine level compared to high serine and glycine levels; 48 hours culture

| SMILES | migration capability (Transwell, metastasis %) [1] | cell growth (MTT, growth %) [2] |
| --- | --- | --- |
| NCC(=O)O [glycine] | relatively high migration capability | grew slowly |
| N[C@@H](CO)C(=O)O [serine] | relatively high migration capability | grew slowly |
